Data reported in US6649745B2 (priority 2002, dated 2003).
Where two headings read alike, the source gives them in different places. Marks after values point to notes of the source that are not given here.

Assays:
immunecompromised mice [1] = assay type: in vivo; conditions: for Antibody titer % change compared to control / Antibody titer mean ± S.E.: titre on 5th day; for Antibody titer mean ± S.E.: n=12
immunecompromised mice [2] = assay type: in vivo; conditions: for DTH mean ± S.E.: n=12
[3] = 0.0006 mg/kg p.o., day 0-4, immunecompromised mice
[4] = 0.0125 mg/kg p.o., day 0-4, immunecompromised mice
[5] = oral, dose levels 0.0062-0.0125 mg Kg^-1, immunecompromised experimental animals
[6] = 0.0006 mg/kg p.o., day 0-4, immunecompromised mice, foot thickness on 5th day
[7] = 0.0125 mg/kg p.o., day 0-4, immunecompromised mice, foot thickness on 5th day
[8] = 2.5 mg/kg p.o., day 0-4, immunecompromised mice
[9] = 2.5 mg/kg p.o., day 0-4, immunecompromised mice, foot thickness on 5th day
[10] = 250 mg/kg p.o., day 0-4, SRBC-sensitized mice

## 3-0-[α-L-rhamnopyranosyl-(1→2)-α-L-rhamnopyranosyl-(1→4)-0-β-D-glucopyranosyl]-25(S)-5β-spirostan-3β-ol [AR-Iv]
Immunecompromised mice [1]; [3]
  Antibody titer % change compared to control: 56** %
  Antibody titer mean ± S.E.: 5.60 ± 0.33
Immunecompromised mice [1]; [4]
  Antibody titer % change compared to control: 78*** %
  Antibody titer mean ± S.E.: 6.41 ± 0.16
Immunecompromised mice [1]; [5]
  potentiation of antibody synthesis: 55.55-69.44%
Immunecompromised mice [2]; [6]
  DTH % change compared to control: 78*** %
  DTH mean ± S.E.: 0.80 ± 0.14
Immunecompromised mice [2]; [7]
  DTH % change compared to control: 102*** %
  DTH mean ± S.E.: 0.91 ± 0.42
Immunecompromised mice [2]; [5]
  enhancement of cell-mediated immune response: 77.77-102.22%

## c1ccc([C@H]2CN3CCSC3=N2)cc1 [LEV, Levamisole, reference compound]
Immunecompromised mice [1]; [8]
  Antibody titer % change compared to control: 89*** %
  Antibody titer mean ± S.E.: 6.80 ± 0.30
Immunecompromised mice [2]; [9]
  DTH % change compared to control: 140*** %
  DTH mean ± S.E.: 1.08 ± 0.14

## Cyclodextrin [reference compound]
Immunecompromised mice [1]; [10]
  Antibody titer % change compared to control: 45* %
  Antibody titer mean ± S.E.: 3.60 ± 0.33
Immunecompromised mice [2]; 250 mg/kg p.o., day 0-4, SRBC challenge in footpad on 4th day, foot thickness on 5th day
  DTH mean ± S.E.: 0.45 ± 0.24
Immunecompromised mice [2]; 250 mg/kg p.o., day 0-4, foot thickness on 5th day
  DTH % change compared to control: 23* %
